From US12595253B2, “Benzamides of pyrazolylamino-pyrimidinyl derivatives, and compositions and methods thereof” (LYNK PHARMACEUTICALS CO. LTD., priority 2019, dated 2026)
pIC50: −log10 of the molar value.

Key:
JAK2 = biological target: T1, JAK2 (Homo sapiens, UniProt O60674); assay: JAK2 microfluidic kinase assay (Caliper EZ Reader II, FAM labeled peptide substrate); assay type: biochemical
T1 construct: purchased Carna Biosciences
Method: (§1) Compounds were tested against JAK1, JAK2, JAK2V617F and TYK2. Assay Formats: JAK activity was determined in the reaction buffer 50 mM HEPES, 0.01% Brij35, 10 mM MgCl2, 2 mM DTT by a microfluidic assay. The phosphorylation of a FAM labeled peptide substrate was monitored in the Caliper EZ Reader II (Perkin Elmer). The assay condition for each batch of enzyme (Carna Biosciences) was optimized to obtain 10% conversion rate of peptide substrate. The test compounds were dissolved in DMSO to a stock concentration of 10 mM. 3-fold serially diluted compounds with top concentration of 5 μM were pre-incubated with JAK1, JAK2, JAK2V617F or TYK2 at indicated concentrations for 10 min at ambient temperature. The final DMSO concentration of assay mixture was 1%. […] The reaction was stopped by adding 50 mM EDTA. […] The percent inhibition was calculated by the following formula. % Inhibition=(Conversionmax−Conversionsample)/(Conversionmax−Conversionmin)*100 • Conversionmax means the conversion rate in the positive well without addition of compound • Conversionmin means the conversion rate in the well without addition of enzyme • Conversionsample means the conversion rate of test compounds The dose-response (percent inhibition) curve was plotted and IC50 values were determined by GraphPad software.

JAK1 = biological target: T2, JAK1 (Homo sapiens, UniProt P23458); assay: JAK1 microfluidic kinase assay (Caliper EZ Reader II, FAM labeled peptide substrate); assay type: biochemical; conditions: IC50 JAK1 (5 nM) (1 m MATP), JAK1 5 nM, 1 mM ATP
T2 construct: purchased Carna Biosciences
Method: as §1

[1] = IC50 JAK2 ([…]) (Km ATP), Km ATP
[2] = IC50 JAK2 ([…]) (1 mM ATP), 1 mM ATP

T2 sequence (P23458 whole entry): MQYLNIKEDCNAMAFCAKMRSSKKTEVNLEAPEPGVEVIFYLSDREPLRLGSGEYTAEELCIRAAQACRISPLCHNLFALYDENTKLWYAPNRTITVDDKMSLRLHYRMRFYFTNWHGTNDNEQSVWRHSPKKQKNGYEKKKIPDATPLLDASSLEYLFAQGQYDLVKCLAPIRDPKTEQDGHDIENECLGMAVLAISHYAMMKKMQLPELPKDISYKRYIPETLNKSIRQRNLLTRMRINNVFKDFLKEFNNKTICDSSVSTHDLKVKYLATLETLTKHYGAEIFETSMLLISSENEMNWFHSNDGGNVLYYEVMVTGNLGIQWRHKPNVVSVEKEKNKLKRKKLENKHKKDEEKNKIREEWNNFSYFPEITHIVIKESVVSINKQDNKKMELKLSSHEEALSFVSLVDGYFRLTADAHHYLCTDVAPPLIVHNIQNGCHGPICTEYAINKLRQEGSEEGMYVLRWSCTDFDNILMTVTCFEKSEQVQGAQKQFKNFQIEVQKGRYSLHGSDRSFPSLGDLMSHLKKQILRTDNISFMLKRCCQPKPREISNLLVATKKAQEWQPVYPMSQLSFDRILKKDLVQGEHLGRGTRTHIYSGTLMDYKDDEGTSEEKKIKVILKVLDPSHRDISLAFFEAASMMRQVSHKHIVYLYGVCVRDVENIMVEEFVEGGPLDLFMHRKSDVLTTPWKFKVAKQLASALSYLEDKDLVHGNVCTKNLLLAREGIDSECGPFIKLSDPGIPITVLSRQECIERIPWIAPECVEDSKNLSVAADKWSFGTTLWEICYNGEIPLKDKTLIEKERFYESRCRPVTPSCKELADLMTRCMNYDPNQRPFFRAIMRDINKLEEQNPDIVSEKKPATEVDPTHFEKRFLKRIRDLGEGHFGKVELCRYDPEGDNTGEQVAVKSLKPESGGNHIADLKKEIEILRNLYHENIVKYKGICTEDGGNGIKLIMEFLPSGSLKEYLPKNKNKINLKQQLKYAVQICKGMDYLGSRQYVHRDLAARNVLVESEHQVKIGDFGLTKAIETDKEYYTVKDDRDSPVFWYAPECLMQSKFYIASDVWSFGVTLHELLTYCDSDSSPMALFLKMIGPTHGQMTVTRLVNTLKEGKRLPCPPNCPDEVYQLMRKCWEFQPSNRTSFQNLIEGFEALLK
T1 sequence (O60674 whole entry): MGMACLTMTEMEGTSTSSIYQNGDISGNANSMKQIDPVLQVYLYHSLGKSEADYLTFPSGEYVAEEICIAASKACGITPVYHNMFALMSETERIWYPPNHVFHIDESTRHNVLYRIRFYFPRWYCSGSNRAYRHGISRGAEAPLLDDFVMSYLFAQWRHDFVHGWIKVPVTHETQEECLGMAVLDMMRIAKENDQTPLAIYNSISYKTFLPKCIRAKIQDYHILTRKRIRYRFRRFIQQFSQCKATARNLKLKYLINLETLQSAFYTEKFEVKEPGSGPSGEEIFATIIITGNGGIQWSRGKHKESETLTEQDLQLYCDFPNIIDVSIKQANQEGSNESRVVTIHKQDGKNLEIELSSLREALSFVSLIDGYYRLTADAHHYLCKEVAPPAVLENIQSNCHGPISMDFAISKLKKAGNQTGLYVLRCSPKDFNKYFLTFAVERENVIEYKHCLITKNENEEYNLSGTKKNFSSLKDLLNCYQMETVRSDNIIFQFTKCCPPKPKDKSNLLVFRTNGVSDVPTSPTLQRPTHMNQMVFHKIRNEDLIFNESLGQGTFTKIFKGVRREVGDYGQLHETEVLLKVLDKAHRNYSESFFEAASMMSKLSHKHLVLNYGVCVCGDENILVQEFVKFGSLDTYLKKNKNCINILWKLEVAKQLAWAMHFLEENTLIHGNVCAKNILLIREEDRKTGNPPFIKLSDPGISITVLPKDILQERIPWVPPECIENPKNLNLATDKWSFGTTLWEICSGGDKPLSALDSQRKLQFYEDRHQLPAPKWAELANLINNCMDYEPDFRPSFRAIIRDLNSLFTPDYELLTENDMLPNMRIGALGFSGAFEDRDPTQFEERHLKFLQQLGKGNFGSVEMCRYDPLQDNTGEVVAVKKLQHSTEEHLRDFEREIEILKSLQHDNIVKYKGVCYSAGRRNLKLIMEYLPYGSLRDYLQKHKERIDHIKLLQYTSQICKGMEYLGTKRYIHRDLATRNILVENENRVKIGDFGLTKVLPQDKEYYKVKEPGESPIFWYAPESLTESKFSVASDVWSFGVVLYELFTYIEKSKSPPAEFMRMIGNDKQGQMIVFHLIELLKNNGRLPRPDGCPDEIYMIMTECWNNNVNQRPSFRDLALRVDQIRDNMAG

pIC50 (JAK2; [1])	pIC50 (JAK1)	pIC50 (JAK2; [2])	SMILES
7.58	–	–	N#CCNC(=O)c1ccc(-c2nc(Nc3cnn(CC(F)F)c3)ncc2F)cc1F [Example 131, N-(cyanomethyl)-4-(2-((1-(2,2-difluoroethyl)-1H-pyrazol-4-yl)amino)-5-fluoropyrimidin-4-yl)-2-fluorobenzamide]
–	< 5.30	< 5.30	N#CCNC(=O)c1ccc(-c2nc(Nc3cnn(C4CCN(C(=O)C5CC5)CC4)c3)ncc2C(F)(F)F)cc1 [Example 161, N-(cyanomethyl)-4-(2-((1-(1-(cyclopropanecarbonyl)piperidin-4-yl)-1H-pyrazol-4-yl)amino)-5-(trifluoromethyl)pyrimidin-4-yl)benzamide]
8.04	–	–	N#CC1CN(C(=O)c2ccc(-c3nc(Nc4cnn(C5CC5)c4)ncc3Cl)cc2F)C1 [Example 136, 1-(4-(5-Chloro-2-((1-cyclopropyl-1H-pyrazol-4-yl)amino)pyrimidin-4-yl)-2-fluorobenzoyl)azetidine-3-carbonitrile]
8.29	–	–	Cc1cnc(Nc2cnn(C)c2)nc1-c1ccc(C(=O)NC(C)C#N)cc1 (stereo not shown) [Example 17, N-(1-Cyanoethyl)-4-(5-methyl-2-((1-methyl-1H-pyrazol-4-yl)amino)pyrimidin-4-yl)benzamide]
–	–	6.34	N#CCNC(=O)c1ccc(-c2nc(Nc3cnn(C4CC4)c3)ncc2C(F)F)cc1F [Example 109, N-(cyanomethyl)-4-(2-((1-cyclopropyl-1H-pyrazol-4-yl)amino)-5-(difluoromethyl)pyrimidin-4-yl)-2-fluorobenzamide]
8.36	–	–	Cc1cnc(Nc2cnn(C)c2)nc1-c1ccc(C(=O)NCC#N)c(F)c1 [Example 100, N-(Cyanomethyl)-2-fluoro-4-(5-methyl-2-((1-methyl-1H-pyrazol-4-yl)amino)pyrimidin-4-yl)benzamide]
8.00	–	–	Cc1cnc(Nc2cnn(C)c2)nc1-c1ccc(C(=O)NCCCO)cc1 [Example 7, N-(3-Hydroxypropyl)-4-(5-methyl-2-((1-methyl-1H-pyrazol-4-yl)amino)pyrimidin-4-yl)benzamide]
8.54	–	–	Cc1cnc(Nc2cnn(C3CCN(CC#N)CC3)c2)nc1-c1ccc(C(=O)N2CC(C#N)C2)cc1 [Example 23, 1-(4-(2-((1-(1-(Cyanomethyl)piperidin-4-yl)-1H-pyrazol-4-yl)amino)-5-methylpyrimidin-4-yl)benzoyl)azetidine-3-carbonitrile]
7.97	–	–	N#CCNC(=O)c1ccc(-c2nc(Nc3cnn(C4CC4)c3)ncc2F)cc1F [Example 116, N-(Cyanomethyl)-4-(2-((1-cyclopropyl-1H-pyrazol-4-yl)amino)-5-fluoropyrimidin-4-yl)-2-fluorobenzamide]
7.85	–	–	Cc1cnc(Nc2cnn(C)c2)nc1-c1ccc(C(=O)NCC(O)CO)cc1 (stereo not shown) [Example 14, N-(2,3-Dihydroxypropyl)-4-(5-methyl-2-((1-methyl-1H-pyrazol-4-yl)amino)pyrimidin-4-yl)benzamide]
7.27	–	–	N#CC1CN(C(=O)c2ccc(-c3nc(Nc4cnn(C5CC5)c4)ncc3F)cc2F)C1 [Example 127, 1-(4-(2-((1-Cyclopropyl-1H-pyrazol-4-yl)amino)-5-fluoropyrimidin-4-yl)-2-fluorobenzoyl)azetidine-3-carbonitrile]
8.82	–	–	Cc1cnc(Nc2cnn(C3CC3)c2)nc1-c1ccc(C(=O)NCC#N)c(F)c1 [Example 128, N-(cyanomethyl)-4-(2-((1-cyclopropyl-1H-pyrazol-4-yl)amino)-5-methylpyrimidin-4-yl)-2-fluorobenzamide]

Second part, the compound before the results:

SMILES	pIC50 (JAK2; [1])	pIC50 (JAK1)	pIC50 (JAK2; [2])
Cc1cnc(Nc2cnn(C)c2)nc1-c1ccc(C(=O)N2CC(C#N)C2)c(F)c1 [Example 103, 1-(2-Fluoro-4-(5-methyl-2-((1-methyl-1H-pyrazol-4-yl)amino)pyrimidin-4-yl)benzoyl)azetidine-3-carbonitrile]	7.92	–	–
Cc1cnc(Nc2cnn(C3CC(C)(C)OC(C)(C)C3)c2)nc1-c1ccc(C(=O)N[C@@H](C)C#N)c(F)c1 [Example 224, (S)—N-(1-Cyanoethyl)-2-fluoro-4-(5-methyl-2-((1-(2,2,6,6-tetramethyltetrahydro-2H-pyran-4-yl)-1H-pyrazol-4-yl)amino)pyrimidin-4-yl)benzamide]	–	7.01	9.31
Cc1cnc(Nc2cnn(C)c2)nc1-c1ccc(C(=O)N2CC(C#N)C2)cc1 [Example 15, 1-(4-(5-Methyl-2-((1-methyl-1H-pyrazol-4-yl)amino)pyrimidin-4-yl)benzoyl)azetidine-3-carbonitrile]	8.07	–	–
COc1cc(-c2nc(Nc3cnn(C)c3)ncc2C)ccc1C(=O)NCC#N [Example 33, N-(cyanomethyl)-2-methoxy-4-(5-methyl-2-((1-methyl-1H-pyrazol-4-yl)amino)pyrimidin-4-yl)benzamide]	7.39	–	–
Cc1cnc(Nc2cnn(C3CC3)c2)nc1-c1ccc(C(=O)N2CC(C#N)C2)cc1 [Example 29, 1-(4-(2-((1-Cyclopropyl-1H-pyrazol-4-yl)amino)-5-methylpyrimidin-4-yl)benzoyl)azetidine-3-carbonitrile]	8.26	–	–
Cc1cnc(Nc2cnn(C)c2)nc1-c1ccc(C(=O)NC2CC(O)C2)cc1 (stereo not shown) [Example 9, N-(3-Hydroxycyclobutyl)-4-(5-methyl-2-((1-methyl-1H-pyrazol-4-yl)amino)pyrimidin-4-yl)benzamide]	7.76	–	–
C[C@@H](C#N)NC(=O)c1ccc(-c2nc(Nc3cnn(C4CC4)c3)ncc2F)cc1F [Example 117, (S)—N-(1-cyanoethyl)-4-(2-((1-cyclopropyl-1H-pyrazol-4-yl)amino)-5-fluoropyrimidin-4-yl)-2-fluorobenzamide]	7.72	–	–
N#CC1CN(C(=O)c2ccc(-c3ccnc(Nc4cnn(C5CC5)c4)n3)cc2F)C1 [Example 141, 1-(4-(2-((1-Cyclopropyl-1H-pyrazol-4-yl)amino)pyrimidin-4-yl)-2-fluorobenzoyl)azetidine-3-carbonitrile]	7.39	–	–
N#CCNC(=O)c1ccc(-c2nc(Nc3cnn(C4CC4)c3)ncc2Cl)cc1F [Example 135, 4-(5-Chloro-2-((1-cyclopropyl-1H-pyrazol-4-yl)amino)pyrimidin-4-yl)-N-(cyanomethyl)-2-fluorobenzamide]	8.55	–	–
Cc1cnc(Nc2cnn(C3CCN(C(=O)C4(C)COC4)CC3)c2)nc1-c1ccc(C(=O)NCC#N)cc1 [Example 118, N-(Cyanomethyl)-4-(5-methyl-2-((1-(1-(3-methyloxetane-3-carbonyl)piperidin-4-yl)-1H-pyrazol-4-yl)amino)pyrimidin-4-yl)benzamide]	> 9.60	–	–
C[C@@H](C#N)NC(=O)c1ccc(-c2ccnc(Nc3cnn(C4CC4)c3)n2)cc1F [Example 142, (S)—N-(1-Cyanoethyl)-4-(2-((1-cyclopropyl-1H-pyrazol-4-yl)amino)pyrimidin-4-yl)-2-fluorobenzamide]	7.90	–	–
Cn1cc(Nc2ncc(F)c(-c3ccc(C(=O)NCC#N)c(F)c3)n2)cn1 [Example 36, N-(Cyanomethyl)-2-fluoro-4-(5-fluoro-2-((1-methyl-1H-pyrazol-4-yl)amino)pyrimidin-4-yl)benzamide]	7.66	–	–
CC(=O)N1CCC(n2cc(Nc3ncc(C)c(-c4ccc(C(=O)N5CC(C#N)C5)cc4)n3)cn2)CC1 [Example 102, 1-(4-(2-((1-(1-Acetylpiperidin-4-yl)-1H-pyrazol-4-yl)amino)-5-methylpyrimidin-4-yl)benzoyl)azetidine-3-carbonitrile]	8.59	–	–
Cc1cnc(Nc2cnn(CC(F)(F)F)c2)nc1-c1ccc(C(=O)N2CC(C#N)C2)cc1 [Example 5, 1-(4-(5-Methyl-2-((1-(2,2,2-trifluoroethyl)-1H-pyrazol-4-yl)amino)pyrimidin-4-yl)benzoyl)azetidine-3-carbonitrile]	7.78	–	–
Cc1cnc(Nc2cnn(CC#N)c2)nc1-c1ccc(C(=O)N2CC(C#N)C2)cc1 [Example 30, 1-(4-(2-((1-(Cyanomethyl)-1H-pyrazol-4-yl)amino)-5-methylpyrimidin-4-yl)benzoyl)azetidine-3-carbonitrile]	7.94	–	–
N#CCNC(=O)c1ccc(-c2nc(Nc3cnn(CC(N)=O)c3)ncc2Cl)cc1 [Example 42, 4-(2-((1-(2-amino-2-oxoethyl)-1H-pyrazol-4-yl)amino)-5-chloropyrimidin-4-yl)-N-(cyanomethyl)benzamide]	–	7.04	–
N#CCNC(=O)c1ccc(-c2nc(Nc3cnn(CC(F)(F)F)c3)ncc2F)cc1F [Example 130, N-(cyanomethyl)-2-fluoro-4-(5-fluoro-2-((1-(2,2,2-trifluoroethyl)-1H-pyrazol-4-yl)amino)pyrimidin-4-yl)benzamide]	7.24	–	–
Cc1cnc(Nc2cnn(C)c2)nc1-c1ccc(C(=O)NCCN(C)C)cc1 [Example 105, N-(2-(Dimethylamino)ethyl)-4-(5-methyl-2-((1-methyl-1H-pyrazol-4-yl)amino)pyrimidin-4-yl)benzamide]	7.25	–	–
Cn1cc(Nc2nccc(-c3ccc(C(=O)NCC#N)cc3F)n2)cn1 [Example 35, N-(Cyanomethyl)-3-fluoro-4-(2-((1-methyl-1H-pyrazol-4-yl)amino)pyrimidin-4-yl)benzamide]	7.46	–	–
Cc1cnc(Nc2cnn(C)c2)nc1-c1ccc(C(=O)NCCO)cc1 [Example 8, N-(2-Hydroxyethyl)-4-(5-methyl-2-((1-methyl-1H-pyrazol-4-yl)amino)pyrimidin-4-yl)benzamide]	7.85	–	–
